Reference: patent US20200078379A1, “DEFEROXAMINE DERIVATIVES AS MEDICAMENTS” (BIOTECHNOLOGICKY USTAV AV CR, V.V.I., priority 2017, published 2020)
Read-outs that look alike come from different tables or passages of the source.

Experiments:
[1] = tested on: MDA-MB-231 cells; test: AnnexinV/PI cell death assay; format: cell-based, human; conditions: 48 hrs
Description: (§1) To confirm such findings by an independent method, cell death-inducing potency (cytotoxic efficacy) of DFO and compound 2 have been tested via annexin V/PI staining commonly used as a measure of apoptotic/necrotic cell death. Briefly, cells were seeded in 12-well plate at 100,000 per well, incubated with the selected compounds for 48 hours, then floating cells were spun, adherent cells trypsinized and spun as well followed by the staining with AnnexinV-FITC and PI probes. Cells were then washed with PBS and measured via Fluorescence Activated Sorter.

[2] = tested on: human mammary gland cancer cell line MDA-MB-231; test: dose-effect relationship of drugs and mixtures, crystal violet assay, Median-Effect / Combination index; format: cell-based; conditions: MDA-MB-231, crystal violet, 48 hours
Description: (§2) The potentiation of cytotoxic effect of compound 2 in combination with several cytostatics was evaluated. The dose-effect relationship of individual drugs and mixtures of compound 2 with paclitaxel, cis Pt (cis-platin), doxorubicin and fluorouracil was determined on human mammary gland cancer cell line MDA-MB-231 and pancreatic cell line BxPC3 by means of crystal violet assay. The linearized Median-Effect Plot of dose response line provided both parameters (IC50; trend line m(slope) value) of Median-Effect Equation for individual and combination treatment [ref: Theoretical basis, experimental design, and computerized simulation of synergism and antagonism in drug combination studies; Ting-Chao Chou: Pharmacol Rev. 58(3), 2006, 621-81; Erratum in Pharmacol Rev. 2007; 59(1), 124]:
(§3) Potentiation of combination effect of compound 2 was expressed for concentrations IC50, IC75, IC90, IC95 by calculation of Combination index (CI) applying Combination Index Theorem for mutually exclusive drugs. Overall CI was expressed by means of weighted average of IC50, IC75, IC90, IC95 [ref: Quantitative analysis of dose-effect relationships: the combined effects of multiple drugs or enzyme inhibitors; Ting-Chao Chou, Paul Talalay: Advances in Enzyme Regulation, Volume 22, 1984, Pages 27-55]: […]

[3] = tested on: pancreatic cell line BxPC3; test: as above; format: cell-based
Description: as §2, §3

[4] = tested on: NIH:OVCAR-3 cells; test: crystal violet assay, cellular viability; format: cell-based; conditions: Homo sapiens, NIH:OVCAR-3, 48 hours
[5] = tested on: non malignant cells (BJ); test: cellular proliferation in real time, Xcelligence technology; format: cell-based, human
Description: The ability of compound 2 to affect the proliferation and cell death induction in real time was monitored by the Xcelligence technology that detects changes in electrical impedance related to the cell number. In brief, special 16-well e-plates containing gold electrodes were filled with medium, blank values were recorded, and then 5.000 cells per well were seeded in the plate and let to attach for 2 hours, followed by the addition of compounds. The electrical impedance was then monitored over time in real-time every 15 minutes. In this case a line is drawn that reflects the cell number over time. […] We have seen a clear inhibition of proliferation with compound 2 at 1 μM, complete block of proliferation at 2 μM concentration, while the cytotoxic effect is seen at 5 μM (Table 9).

[6] = tested on: T47D cells; test: AnnexinV/PI cell death assay; format: cell-based; conditions: 48 hrs
Description: as §1
Since compound 2 is an iron chelator, we have evaluated the effect of pretreating compound 2 with iron. at a 1:1 ratio by using the Annexin V/PI staining as in example 7.

[7] = tested on: BxPC-3 cells; test: crystal violet assay, cellular viability; format: cell-based; conditions: Homo sapiens, BxPC-3, 48 hours
[8] = tested on: MCF7 cells; test: crystal violet assay, cellular viability; format: cell-based, human
Description: (§4) Compound 1 and compound 2 were tested in their efficacy to kill malignant MCF7 cancer cells. Briefly, 10.000 cells per well were seeded in a 96-well plat on one day and the next day selected compounds were added and incubated with the cells for 48 hrs. The cells were then fixed with 4% paraformaldehyde, stained with 0.05% crystal violet, washed with PBS, and solubilized in 1% SDS. The absorbance of the plate at 595 nm was then measured, quantifying the number of viable cells.
(§5) A number of compounds of the present invention were tested for cytotoxicity towards at least some of human breast cancer cell lines (MCF7, MDA-MB-231), human fibroblast (BJ) and murine triple negative breast cancer cell line 4T1 (Table 2).

[9] = tested on: MDA-MB-231 cells; test: crystal violet assay, cellular viability; format: cell-based, human
Description: as §4, §5

[10] = tested on: AsPC-1 cells; test: crystal violet assay, cellular viability; format: cell-based; conditions: Homo sapiens, ASPC1, AsPC-1, 48 hours
[11] = tested on: MCF7 cells; test: OCR and ECAR, Seahorse instrument; format: cell-based, human; conditions: 1 hour incubation
Text: Application of compound 2 leads to marked inhibition of cellular respiration as evidenced by two independent methods: the Oxygraph instrument (Rohlenova, K., Sachaphibulkij, K., Stursa, J., Bezawork-Geleta, A., Blecha, J., Endaya, B., Werner, L., Cerny, J., Zobalova, R., Goodwin, J., Spacek, T., Alizadeh, P. E., Yan, B., Nguyen, M. N., Vondrusova, M., Sobol, M., Jezek, P., Hozak, P., Truksa, J., Rohlena, J., Dong, L. F., & Neuzil, J. (2017) Selective Disruption of Respiratory Supercomplexes as a New Strategy to Suppress Her2high Breast Cancer. Antioxid. Redox. Signal., 26, 84-103) (Table 6) and Seahorse instrument (Table 7). For Seahorse analysis, 20.000 or 30.000 cells were seeded in 96 well plates and incubated with compound 2 for 1 hour. Afterwards, oxygen consumption rate (OCR) and extracellular acidification rate (ECAR) were measured in three cycles of 3 minutes preceded by 3 minutes of mixing, using a Seahorse XFe96 analyzer (Agilent). Results express the mean values of the three cycles.

CC(=O)N(O)CCCCCNC(=O)CCC(=O)N(O)CCCCCNC(=O)CCC(=O)N(O)CCCCCN(CCCCCCCCCC[P+](c1ccccc1)(c1ccccc1)c1ccccc1)CCCCCCCCCC[P+](c1ccccc1)(c1ccccc1)c1ccccc1.[Cl-].[Cl-] [Compound 2, Triphenyl(3,14,25-trihydroxy-2,10,13,21,24-pentaoxo-31-(10-(triphenylphosphonio)decyl)-3,9,14,20,25,31-hexaazahentetracontan-41-yl)phosphonium chloride]
mean percentage of dead cells (AnnexinV/PI) ([1]; MDA-MB-231, 5 μM): 39.8% | mean percentage of dead cells (AnnexinV/PI) ([1]; MDA-MB-231, 10 μM): 78.5% | mean percentage of dead cells (AnnexinV/PI) ([1]; MDA-MB-231, 20 μM): 98.0% | IC50 ([2]; Homo sapiens, Chou-Talalay method, read-out: Median-Effect Plot parameter IC50): 5.89 µM | Median-Effect Plot parameter m (slope) [2]: 1.2778 | Median-Effect Plot parameter m (slope) ([3]; 48 hours): 1.57 | IC50 ([3]; Homo sapiens, BXPC-3, 48 h, read-out: Median-Effect Plot parameter IC50): 4.5 µM | IC50 [4]: 3.7 µM | slope of the line (relative number of cells in relation to time) ([5]; 0-15 h, 1 μM): 1.14 | slope of the line (relative number of cells in relation to time) ([5]; 0-15 h, 2 μM): 1.07 | slope of the line (relative number of cells in relation to time) ([5]; 0-15 h, 5 μM): 0.83 | slope of the line (relative number of cells in relation to time) ([5]; 0-36 h, 1 μM): 1.08 | slope of the line (relative number of cells in relation to time) ([5]; 0-36 h, 2 μM): 0.90 | slope of the line (relative number of cells in relation to time) ([5]; 0-36 h, 5 μM): 0.47 | effect on cellular proliferation of non-malignant BJ cells, in words ([5]; Xcelligence, 5 μM): very mild and statistically non-significant effect | mean percentage of dead cells (AnnexinV/PI) ([6]; 5 μM): 38.3 (5.8) % | mean percentage of dead cells (AnnexinV/PI) ([6]; 10 μM): 41.2 (3.1) % | mean percentage of dead cells (AnnexinV/PI) ([6]; 20 μM): 93.6 (1.3) % | IC50 [7]: 1.7 µM | Selectivity index (IC50 non-malignant/IC50 malignant) ([8]; BJ vs MCF7, 48 hours): 12.43 | IC50 ([8]; Homo sapiens, MCF7, 48 h, crystal violet, read-out: IC50 cellular viability): 1.2 µM | IC50 ([8]; Homo sapiens, MCF7, MCF7 Parental, read-out: IC50 crystal violet): 1.5 µM | viability at 1 µM ([8]; Homo sapiens, MCF7, 1 μM, 48 hrs, crystal violet, read-out: mean percentage of viable cells compared to non-treated controls): 56.9% | viability at 2 µM ([8]; Homo sapiens, MCF7, 2 μM, 48 hrs, crystal violet, read-out: mean percentage of viable cells compared to non-treated controls): 20% | viability at 5 µM ([8]; Homo sapiens, MCF7, 5 μM, 48 hrs, crystal violet, read-out: mean percentage of viable cells compared to non-treated controls): 10% | viability at 10 µM ([8]; Homo sapiens, MCF7, 10 μM, 48 hrs, crystal violet, read-out: mean percentage of viable cells compared to non-treated controls): 12.1% | Selectivity index (IC50 non-malignant/IC50 malignant) ([9]; BJ vs MDA-MB-231, 48 hours): 2.64 | IC50 ([9]; Homo sapiens, MDA-MB-231, 48 h, read-out: IC50 cellular viability): 5.4 µM | IC50 [10]: 2.6 µM | Oxygen consumption rate (OCR) ([11]; MCF7, 5 μM): 15.4 pmol*min^−1 10.000 cells^−1 | extracellular acidification rate (ECAR) ([11]; MCF7, 5 μM): 9.69 mpH*min^−1 10.000 cells^−1 | Oxygen consumption rate (OCR) ([11]; MCF7, 10 μM): 9.6 pmol*min^−1 10.000 cells^−1 | extracellular acidification rate (ECAR) ([11]; MCF7, 10 μM): 8.2 mpH*min^−1 10.000 cells^−1
